Results: PubChem BioAssay (NCI)
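Cells were grown in 96-well plates and exposed to each compound for 48 hours at five concentrations; endpoints were interpolated linearly between bracketing concentrations, or set to the highest concentration if not reached. TGI: concentration producing complete growth inhibition.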

Experiments:
Assay in all cases: NCI anticancer screen, dose series, 48 h
MALME-3M melanoma = test system: MALME-3M melanoma
NCI-H23 lung = test system: NCI-H23 lung
UO-31 renal = test system: UO-31 renal
SNB-19 CNS = test system: SNB-19 CNS
CAKI-1 renal = test system: CAKI-1 renal
HT29 colon = test system: HT29 colon
EKVX NSCLC = test system: EKVX NSCLC
A549 NSCLC = test system: A549 NSCLC
HCT-116 colon = test system: HCT-116 colon
SF-295 CNS = test system: SF-295 CNS
OVCAR-4 ovarian = test system: OVCAR-4 ovarian
UACC-257 melanoma = test system: UACC-257 melanoma
OVCAR-5 ovarian = test system: OVCAR-5 ovarian
HOP-92 NSCLC = test system: HOP-92 NSCLC
HCC-2998 colon = test system: HCC-2998 colon
OVCAR-3 ovarian = test system: OVCAR-3 ovarian
MCF7 breast = test system: MCF7 breast
HS 578T breast = test system: HS 578T breast
NCI/ADR-RES ovarian = test system: NCI/ADR-RES ovarian

CC(=O)OCC1OC(OC2C(COC(C)=O)OC(Sc3ccccc3C)C(OC(C)=O)C2OC(C)=O)C(OC(C)=O)C(OC(C)=O)C1OC(C)=O (stereo not given)
TGI (MALME-3M melanoma): > 100 µM
TGI (NCI-H23 lung): > 100 µM
TGI (UO-31 renal): > 100 µM
TGI (SNB-19 CNS): > 100 µM
TGI (CAKI-1 renal): > 100 µM
TGI (HT29 colon): > 100 µM
TGI (EKVX NSCLC): > 100 µM
TGI (A549 NSCLC): > 100 µM
TGI (HCT-116 colon): > 100 µM
TGI (SF-295 CNS): > 100 µM
TGI (OVCAR-4 ovarian): > 100 µM
TGI (UACC-257 melanoma): > 100 µM
TGI (OVCAR-5 ovarian): > 100 µM
TGI (HOP-92 NSCLC): > 100 µM
TGI (HCC-2998 colon): > 100 µM

COc1ccc(C2ON(c3ccccc3)CC=C2C)cc1 (stereo not given)
TGI (MALME-3M melanoma): > 100 µM
TGI (NCI-H23 lung): > 100 µM
TGI (UO-31 renal): > 100 µM
TGI (SNB-19 CNS): > 100 µM
TGI (OVCAR-3 ovarian): > 100 µM
TGI (CAKI-1 renal): > 100 µM
TGI (HT29 colon): > 100 µM
TGI (EKVX NSCLC): > 100 µM
TGI (A549 NSCLC): > 100 µM
TGI (HCT-116 colon): > 100 µM
TGI (SF-295 CNS): > 100 µM
TGI (OVCAR-4 ovarian): > 100 µM
TGI (UACC-257 melanoma): > 100 µM
TGI (OVCAR-5 ovarian): > 100 µM
TGI (HCC-2998 colon): > 100 µM

NS(=O)(=O)c1ccc(Nc2c3ccccc3nc3c(C(=O)N4CCN(CCO)CC4)cccc23)cc1
TGI (MALME-3M melanoma): > 100 µM
TGI (NCI-H23 lung): > 100 µM
TGI (UO-31 renal): > 100 µM
TGI (SNB-19 CNS): > 100 µM
TGI (OVCAR-3 ovarian): > 100 µM
TGI (CAKI-1 renal): > 100 µM
TGI (HT29 colon): > 100 µM
TGI (EKVX NSCLC): > 100 µM
TGI (A549 NSCLC): > 100 µM
TGI (HCT-116 colon): > 100 µM
TGI (SF-295 CNS): > 100 µM
TGI (OVCAR-4 ovarian): > 100 µM
TGI (UACC-257 melanoma): > 100 µM
TGI (OVCAR-5 ovarian): > 100 µM
TGI (HOP-92 NSCLC): > 100 µM
TGI (HCC-2998 colon): > 100 µM

CC(c1ccc2c(c1)CCC1C2CC2OC23CC=CC(=O)[C@]13C)C1C[C@]2(C)O[C@]2(C)[C@H](O)O1 (stereo not given in full)
TGI (MALME-3M melanoma): > 100 µM
TGI (NCI-H23 lung): 25.2 µM
TGI (UO-31 renal): > 100 µM
TGI (SNB-19 CNS): > 100 µM
TGI (OVCAR-3 ovarian): > 100 µM
TGI (CAKI-1 renal): 81.3 µM
TGI (HT29 colon): > 100 µM
TGI (EKVX NSCLC): > 100 µM
TGI (A549 NSCLC): > 100 µM
TGI (HCT-116 colon): > 100 µM
TGI (UACC-257 melanoma): 56.8 µM
TGI (OVCAR-5 ovarian): > 100 µM
TGI (HOP-92 NSCLC): > 100 µM
TGI (HCC-2998 colon): > 100 µM

Cc1cc(=O)oc2c(CNC(CO)C(=O)O)c(O)ccc12 (stereo not given)
TGI (MALME-3M melanoma): > 100 µM
TGI (NCI-H23 lung): > 100 µM
TGI (UO-31 renal): > 100 µM
TGI (SNB-19 CNS): > 100 µM
TGI (OVCAR-3 ovarian): > 100 µM
TGI (MCF7 breast): > 100 µM
TGI (CAKI-1 renal): > 100 µM
TGI (HT29 colon): > 100 µM
TGI (EKVX NSCLC): > 100 µM
TGI (A549 NSCLC): > 100 µM
TGI (HCT-116 colon): > 100 µM
TGI (HS 578T breast): > 100 µM
TGI (SF-295 CNS): > 100 µM
TGI (OVCAR-4 ovarian): > 100 µM
TGI (UACC-257 melanoma): > 100 µM
TGI (NCI/ADR-RES ovarian): > 100 µM
TGI (OVCAR-5 ovarian): > 100 µM
TGI (HOP-92 NSCLC): > 100 µM

CN(C)Cc1cc(C(=O)/C=C/c2ccc(Cl)c(Cl)c2)cc(CN(C)C)c1O
TGI (MALME-3M melanoma): 10.4 µM
TGI (NCI-H23 lung): 19.9 µM
TGI (UO-31 renal): 5.39 µM
TGI (SNB-19 CNS): 11.6 µM
TGI (OVCAR-3 ovarian): 5.46 µM
TGI (MCF7 breast): 12.3 µM
TGI (CAKI-1 renal): 4.08 µM
TGI (HT29 colon): 2.79 µM
TGI (EKVX NSCLC): 20.8 µM
TGI (A549 NSCLC): 8.47 µM
TGI (HCT-116 colon): 12.1 µM
TGI (HS 578T breast): 8.74 µM
TGI (SF-295 CNS): 12.1 µM
TGI (OVCAR-4 ovarian): 15.4 µM
TGI (UACC-257 melanoma): 5.1 µM
TGI (NCI/ADR-RES ovarian): 7.85 µM
TGI (OVCAR-5 ovarian): 20.9 µM
TGI (HOP-92 NSCLC): 3.85 µM
TGI (HCC-2998 colon): 12.5 µM

c1cc2nnsc2s1
TGI (MALME-3M melanoma): > 100 µM
TGI (NCI-H23 lung): > 100 µM
TGI (UO-31 renal): > 100 µM
TGI (SNB-19 CNS): > 100 µM
TGI (CAKI-1 renal): > 100 µM
TGI (HT29 colon): > 100 µM
TGI (EKVX NSCLC): > 100 µM
TGI (SF-295 CNS): > 100 µM
TGI (OVCAR-4 ovarian): > 100 µM
TGI (UACC-257 melanoma): > 100 µM
TGI (OVCAR-5 ovarian): > 100 µM
TGI (HOP-92 NSCLC): > 100 µM
TGI (HCC-2998 colon): > 100 µM
